Assay results taken from patent publication US10900063B2, “Measurement of Lp-PLA2 activity” (ASAHI KASEI PHARMA CORPORATION, priority 2016, dated 2021).
Numbering of substitutions follows the chain as printed. Numbers in names are those of the source.

B1: lyso-PAF-PLD: recombinant enzyme from Thermocrispum sp. NITE BP-01628, SEQ ID NO: 9, PLD activity against lyso-PAF but not PAF (protein)
chain: MTTRTTDNPWLDARVLNMAHAGGENEAPANTLYAFKRAVKLGANMLELDVQSTKDDQLVVIHNATVDQTTDGTGKVRDLTFEQVHELDAAYNFIPGRHAVPGEPPESYPLRGVRTGEKKPPPGYQPSDFAIPKLADVLEAFPRTPINIEIKGTSDADIPSFLHNAKLLARLLKKTGRTDFIVTSFNDLAVAKFHLLAPDIPIAPGMAGLAAYFLLGVKPMHGTVALQIPVRYQGLEIATPEFIRRAHADGYAVHVWFSGTAPDDEATYNRIIDSCADGLMPAYPALLERILDERGIERPGRPGVDPCG
B2: M45D: lyso-PAF-PLD mutant, D substituted for M in the 45th position of SEQ ID NO: 9 (protein)
chain: B1 chain with M45D
B3: M45L: lyso-PAF-PLD mutant, L substituted for M in the 45th position of SEQ ID NO: 9 (protein)
chain: B1 chain with M45L

Tests used:
[1] = neutral pH; cited from earlier work
[2] = biological target: T1, Lp-PLA2 (Homo sapiens, UniProt Q13093); assay: Effects of coexisting substances, PLAC Test; assay type: biochemical; conditions: for Lp-PLA2 activity value / ΔmAbs/min: coexisting substance added 1:9 to pooled serum J042; for measurement value as percentage of sample with added water (100%): pooled serum J042 plus coexisting substance vs J042 + water
T1 construct: Individual serum No. 16, individual serum No. 78; from tissue; host or cells: serum and plasma (individual sera, pooled sera, heparin and citrated pooled plasma)
T1 sequence (Q13093 22-441): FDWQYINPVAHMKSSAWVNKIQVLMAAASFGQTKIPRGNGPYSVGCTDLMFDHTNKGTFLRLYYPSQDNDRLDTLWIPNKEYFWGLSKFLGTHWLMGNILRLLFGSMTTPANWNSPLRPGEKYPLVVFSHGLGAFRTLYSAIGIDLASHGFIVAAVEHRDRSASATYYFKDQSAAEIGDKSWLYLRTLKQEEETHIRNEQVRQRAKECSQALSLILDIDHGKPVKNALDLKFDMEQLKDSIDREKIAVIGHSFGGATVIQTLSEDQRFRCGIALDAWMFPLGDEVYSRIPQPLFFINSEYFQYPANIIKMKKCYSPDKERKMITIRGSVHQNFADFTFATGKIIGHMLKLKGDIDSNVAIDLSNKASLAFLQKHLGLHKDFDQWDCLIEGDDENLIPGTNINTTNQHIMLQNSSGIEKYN
Description: (§1) The reagent compositions were the same as in Example 17.
(§2) The absorbance change values per minute (ΔmAbs/min) and activity values (nmol/min/mL and U/L) with each kind of reagent are shown in Tables 43 to 45. Given 100% as the measurement value of the sample with the added water, the measurement values for the other samples are shown as percentages.

[3] = biological target: T1, Lp-PLA2; assay: Effects of coexisting substances, Lp-PLA2 FS; assay type: biochemical; conditions: for Lp-PLA2 activity value / ΔmAbs/min: coexisting substance added 1:9 to pooled serum J042; for measurement value as percentage of sample with added water (100%): pooled serum J042 plus coexisting substance vs J042 + water
Description: as §1, §2

[4] = biological target: T1, Lp-PLA2; assay: Effects of coexisting substances, reagents of invention; assay type: biochemical; conditions: for measurement value as percentage of sample with added water: J042 + water = 100%, concentrations as printed in the sample names; for Lp-PLA2 activity value / absorbance change per minute: pooled serum J042 mixed 9:1 with: Bil-C 20 mg/dL, Bil-F 20 mg/dL, hemolytic Hb 500 mg/dL, chyle 1400 FTU, Intralipos 1%, ascorbic acid 50 mg/dL
Description: as §1, §2

[5] = Thermal stability test of lyso-PAF-PLD (residual activity); assay type: physicochemical; conditions: incubated 60 minutes in 20 mM Tris-HCl (pH 7.5)
Procedure: The purified lyso-PAF-PLD was incubated for 60 minutes at different temperatures in a 20 mM Tris-HCl (pH 7.5) solution, and residual activity was investigated with the following reaction solution. C18(Plasm) LPC (Product No. 852465P, Avanti Polar Lipids, Inc.) was used as the substrate.
50 μL of the reaction solution was pre-incubated for 5 minutes at 37° C., 5 μL of the enzyme solution was added, and an enzyme reaction was performed for 1 minute at […]. 200 μL of the color developing solution was then added and reacted for 10 minutes at 37° C., after which absorbance was measured at 550 nm. The activity value was calculated according to the following formula.

[6] = Specificity of recombinant lyso-PAF-PLD: PLD activity against PAF; assay type: biochemical; conditions: 0 to 0.5 mM PAF (C16); […] enzyme in R2
Procedure: (§3) To investigate the specificity of the recombinant lyso-PAF-PLD purified in Reference Example 3, activity against PAF(C16) and lyso-PAF(C16) was studied. The reagent compositions are as follows.
(§4) 5 μL samples containing PAF(C16) or lyso-PAF(C16) at concentrations of 0, 0.1, 0.2, 0.3, 0.4 or 0.5 mM were each incubated for 5 minutes at 37° C. with 15 μL of the R1 reagent (measuring points 1 to 15), after which 50 μL of the R2 reagent was added and reacted for 5 minutes (measuring points 16 to 31).

[7] = Specificity of recombinant lyso-PAF-PLD: PLD activity against lyso-PAF; assay type: biochemical; conditions: 0 to 0.5 mM lyso-PAF (C16); […] enzyme in R2
Procedure: as §3, §4

[8] = PLD activity (kcat/Km) of lyso-PAF-PLD and site-specific mutants against lyso-PAF; assay type: biochemical; conditions: substrate lyso-PAF 0 to 5 mM, pH 7.5, 37° C.
Procedure: As a result, the pre-mutation PLD activity was 1385 (s^−1 mM^−1), but the mutant having G substituted for the M in the 45th position of SEQ ID NO: 9 (called M45G) and the similarly-named mutants M45A, M45L and M45D had PLD activities of 3059, 11411, 3284 and 4557 (s^−1mM^−1), respectively.
As a result, the PLD activity was 1385 (s^−1mM^−1) before the mutation, but the mutant having G substituted for F in the 257th position of […] (called F257G) and the similarly-named mutants F257E, F257R, F257K and F257W had PLD activities 1200, 1000, 1080, 1020 and 1320, respectively.
The PLD activity of the lyso-PAF-PLD mutants obtained by site-specific mutations was measured as follows. 1.211 g of Tris, 14.7 mg of calcium chloride dihydrate (Wako Pure Chemical Industries, Ltd.), 20 mL of lyso-PAF solution and 2 mL of 1% TODB solution were dissolved in 60 mL of purified water, the pH was adjusted to 7.5 (25° C.) with 1 N HCl, 4 mL of 100 U/mL choline oxidase, 4 mL of 100 U/mL peroxidase solution and 2 mL of 1% 4-AA solution were added and dissolved, and the total was brought to 100 mL with purified water to obtain a PLD activity measurement reagent for lyso-PAF (reaction reagent mixture). The lyso-PAF solution was adjusted so that the lyso-PAF concentration in the reaction reagent mixture was 0 to 5 mM. 3 mL of the reaction reagent mixture was pre-heated for 5 minutes at 37° C., and mixed with 50 μL of a solution of the lyso-PAF-PLD mutant with the introduced site-specific mutation diluted appropriately with 10 mM Tris-HCl (pH 7.5) to initiate a reaction, and the change in absorbance at 546 nm was measured for 1 minute between 8 and 9 minutes after initiation of the reaction. The activity value (μmole/min) was calculated given 36 (cm^2/μmole) as the millimolar extinction coefficient of the quinoneimine dye at 546 nm. The protein content (mg/mL) was calculated by the Bradford method using bovine serum albumin as the standard. Km and kcat were calculated by the Michaelis-Menten formula in accordance with the methods described in the aforementioned Theory and Practice on Enzymes and other Proteins [Tanpakushitsu/Kouso no kiso jikkenhou] and in Voet's Basic Biochemistry (Fourth Ed.) and the like. For purposes of calculation, the molecular weight of the enzyme was given as 33583.

| Molecule | Lp-PLA2 activity value [2] [nmol/min/mL] | ΔmAbs/min [2] | measurement value as percentage of sample with added water (100%) [2] [%] | Lp-PLA2 activity value [3] [U/L] | ΔmAbs/min [3] | measurement value as percentage of sample with added water (100%) [3] [%] | measurement value as percentage of sample with added water [4] [%] | Lp-PLA2 activity value [4] [nmol/min/mL] | absorbance change per minute [4] | Km [8] [µM] | kcat [8] [s⁻¹] | other results |
| --- | --- | --- | --- | --- | --- | --- | --- | --- | --- | --- | --- | --- |
| CCCCCCCCCCCCCC(=O)OCC(COP(=O)([O-])OCC[N+](C)(C)C)OC(=O)CCC(=O)Oc1ccc([N+](=O)[O-])cc1 (centres unmarked) [1-myristoyl-2-(4-nitrophenylsuccinyl)phosphatidylcholine] | – | – | – | – | – | – | – | – | – | – | – | water solubility [1]: poor water solubility at neutral pH values |
| C=CC1=C(C)/C(=C/c2[nH]c(Cc3[nH]c(/C=C4\NC(=O)C(C)=C4C=C)c(C)c3CCC(=O)O)c(CCC(=O)O)c2C)NC1=O [Bil-F] | 145.5 | 188.4 ΔmAbs/min | 105 | 351.0 | 29.4 ΔmAbs/min | 102 | 101 | 31.3 | 22.1 ΔmAbs/min | – | – | – |
| O=C1O[C@H]([C@@H](O)CO)C(O)=C1O [ascorbic acid, L(+)-Ascorbic acid] | 138.1 | 181.0 ΔmAbs/min | 99 | 343.5 | 28.8 ΔmAbs/min | 100 | 96 | 29.6 | 20.9 ΔmAbs/min | – | – | – |
| B1 | – | – | – | – | – | – | – | – | – | – | – | thermal stability (residual activity) [5]: not inactivated by storage at 20 to 60 °C; PLD activity against PAF [6]: not against PAF; PLD activity against lyso-PAF [7]: exhibits PLD activity only against lyso-PAF |
| B2 | – | – | – | – | – | – | – | – | – | 34 | 157 | – |
| B3 | – | – | – | – | – | – | – | – | – | 23 | 147 | – |
